Measured values: patent US20150017665A1, “Peptides and Methods for Detecting MPO-ANCA” (The University of North Carolina at Chapel Hill, priority 2012, published 2015)

Assays:
MPO-ANCA [1] = test: Epitope excision MALDI-TOF/TOF MS of patient and healthy Ig with native MPO; assay type: binding; design: key: HC: Healthy control; Active disease; Remission; conditions: human Ig
Description: Total immunoglobulin (IgG) was purified from sera using protein A/G PLUS-Agarose Reagent according to commercial protocol (Santa Cruz Biotechnology). Purified IgG was immobilized on CNBr-activated Sepharose 4B (GE Healthcare) in compact reaction columns (CRC, USB Corporation) and exposed to native MPO protein (MPO, Elastin Products Co, Inc) followed by digestion with sequencing grade TPCK-treated trypsin (Worthington). MPO-peptides remaining bound to IgG after digestion were eluted with 0.1% trifluoro acetic acid and analyzed on a 4800 Plus Matrix-Assisted Laser Desorption Ionization Time of Flight Mass Spectrometry (MALDI TOF/TOF MS/MS) in conjunction with ProteinPilot software (AB SCIEX).
To identify epitopes of low titer autoantibodies, ^18O labeling (Mirza et al., J. Proteome Res. 7:3042 (2008)) was used to differentiate between the signal and the noise in the MS and MSMS spectra using the 4 Da shifts between the corresponding spectra of labeled and non-labeled peptides. Mass spectrometry analysis for epitopes recognized by MPO autoantibodies from healthy individuals, and for detection of low ANCA titers in remission samples required the use of isotope H2^18O to increase sensitivity (Cambridge Isotope Laboratories). Samples from healthy individuals (n=10) and MPO-ANCA patients in clinical remission (n=35) were processed in the presence of H2^18O. Incorporation of H2^18O on the carboxyl terminus of each proteolytic fragment of MPO during tryptic digestion, trypsin buffer was made with the isotope H2^18O as a diluent.
MPO-ANCA positive patients (n=45) from the University of North Carolina cohort (UNC) were analyzed in the initial studies. Demographics of the cohort (Table 2) indicate a predominantly Caucasian group. Approximately 40% are diagnosed with microscopic polyangiitis (MPA), 40% with renal-limited disease and 20% are diagnosed with granulomatosis with polyangiitis (GPA). To compare epitope specificities related to disease activity, longitudinal samples were analyzed to include active disease (n=52) and remission (n=35) from the UNC cohort (Tables 3 and 4). Ten healthy subjects were included in the analyses. Purified immunoglobulin (Ig) from sera samples was subjected to analysis by epitope excision MALDI-TOF/TOF mass spectrometry (depicted in FIG. 3A) to identify epitope profiles of autoantibodies reactive with MPO. In order to epitope map low titer anti-MPO antibodies from healthy subjects and from patients in disease remission, an approach was designed using the ^16O-to-^18O exchange technique, an adaptation of a proteomics-based quantification method (Mirza et al., J. Proteome Res. 7:3042 (2008)). Incorporation of H2^18O on the carboxyl termini of proteolytic fragments produces a 4 Da mass shift in the MS spectra, decipherable from background noise. MPO epitopes unique to Ig from patients with active disease were designated ‘exclusive to active disease’; epitopes identified in remission samples were designated ‘persistent during remission’; and those present in samples from healthy subjects were designated asymptomatic or ‘natural’.

[2] = tested on: anti-MPO antibodies of immunized DR2 Tg mice; test: Epitope excision MS of IgG from immunized DR2 Tg mice with recombinant mouse MPO; assay type: binding; conditions: DR2 Tg mice immunized with MPO aa442-460
Procedure: Mass spectrometry analysis of ANCA-negative IgG and mouse IgG samples were conducted as above. With the exception of protein substrate, immobilized ANCA-negative IgG were exposed to whole leukocyte lysate preparation from a healthy donor and mouse IgG to recombinant mouse MPO (R&D Systems).
As HLA-MHC II help shape the B and T cell repertoires, and consequently the response to foreign and self-antigens, we wanted to define the epitope specificity of the anti-MPO autoantibodies that could be induced experimentally using DR2 Tg mice. In this way, we could assess development of the anti-MPO antibody response after immunization of a single epitope in the context of a human MHC II. IgG from sera of immunized mice was profiled for anti-MPO epitope specificity using epitope excision MS. DR2 Tg mice developed antibodies targeting the human B cell epitope aa447-459 which is within a conserved region of both murine and human MPO. Unpredictably, immunized DR2 Tg mice initiated a polyclonal response producing autoantibodies against the entire MPO molecule. The epitope profile was astonishingly similar to that of the MPO-ANCA human profile (Table 6), indicative of the critical nature of this epitope.

DR2 Tg mice = test: Actively induced anti-MPO associated glomerulonephritis (peptide immunization); assay type: in vivo, mouse
Procedure: DR2 Tg mice (Ooi et al., Proc. Natl. Acad. Sci. USA 109:E2615 (2012); Rich et al., Eur. J. Immunol. 34:1251 (2004)) were immunized s.c. with 3×100 μg of peptide antigen (OVA323-339, n=4 or MPO442-460, n=10) first in FCA then FIA on days 0, 7 and 14. Mice were culled on day 28.
For indirect immunofluorescence, ethanol fixed thioglycolate induced peritoneal neutrophils were cytospun onto slides, purified serum IgG (1 mg/ml) was applied for 20 minutes then anti-mouse IgG Ab was detected using FITC conjugated anti-mouse IgG Ab (Silenus) (Ooi et al., Proc. Natl. Acad. Sci. USA 109:E2615 (2012); Lock, J. Clin. Pathol. 47:4 (1994)). Albuminuria was assessed by ELISA (Bethyl Laboratories) and haematuria assessed by urine test strips (Combur) from a 24 hour urine sample. Blood urea nitrogen (BUN) was measured using standard laboratory methods on serum collected at the end of experiment. Glomerular abnormalities assessed, on […], PAS stained, formalin fixed, paraffin embedded sections (≧50 glomeruli/mouse), were thickening of the capillary walls and mesangial hypercellularity (Ooi et al., J. Am. Soc. Nephrol. 20:980 (2009)). Total glomerular cell nuclei were enumerated (≧20 glomeruli/mouse). Glomerular neutrophils were detected by immunoperoxidase staining of 6 μm thick, periodate lysine paraformaldehyde fixed, frozen kidney sections using anti-Gr-1 antibodies (RB6-8C5).

MPO-ANCA [3] = test: Peptide ELISA with total IgG (Chapel Hill and Groningen); assay type: binding, human
Procedure: A total of 195 IgG samples were tested by native MPO or peptide ELISA. Samples included those from healthy controls (n=59), active disease (n=80) and remission patients (n=56). Total IgG was added to wells (2 μg/well) precoated with 1-2 μg peptide (UNC-CH peptide synthesis core). Goat anti-human with alkaline phosphatase conjugate secondary antibody specific to IgG (H+L) (Millipore, Billerica, Mass.) (1:10,000) was added and detected using 1-Step PNPP substrate (Thermo Scientific) and read at λ=405 nm after 30 min. Identical peptides were used in ELISAs at both locations; all other substrates used to test NL cohort samples by ELISAs were prepared in Groningen. Total IgG (1:500˜2 mg/well) was added to precoated wells blocked with 1% BSA. Secondary antibody, goat anti-human conjugated with alkaline phosphatase (A5403; Sigma-Aldrich) (1:5000), was added and detected using p-nitrophenyl-phosphate disodium substrate.

[4] = compared with OVA aa323-339 immunized mice

| Substance | Found in samples: Healthy control, Active disease, or Remission, (HC, A, R) (MPO-ANCA [1]; Table 1) | Found in samples: Healthy control, Active disease, or Remission, (HC, A, R) (MPO-ANCA [1]; Table 6) | Epitopes found in immunized mice [2] | also measured |
| --- | --- | --- | --- | --- |
| DHGLPGYNAWR (listed as Homo sapiens) [aa593-603] | A, R, HC | A, R, HC | DHGLPGYNAWR |  |
| FCGLPQPETVGQLGT (listed as Homo sapiens) [aa605-622] | A | A |  |  |
| FPTDQLTPDQER (listed as Homo sapiens) [aa237-248] | A, R, HC | A, R, HC |  |  |
| FQDNGR (listed as Homo sapiens) [aa369-374] | A | A |  |  |
| FWWENEGVFSMQQR (listed as Homo sapiens) [aa678-691] | A, R, HC | A, R, HC |  |  |
| IANVFTNAFR (listed as Homo sapiens) [aa490-499] | A | A | IANVFTNAFR |  |
| IGLDLPALNMQR (listed as Homo sapiens) [aa579-590] | A, R, HC | A, R, HC | IGLDLPALNMQR |  |
| IPCFLAGDTR (listed as Homo sapiens) [aa396-405] | R | R | IPCFLAGDMR |  |
| KYLPTYR (listed as Homo sapiens) [aa474-480] | A ,R | A, R |  |  |
| LFEQVMR (listed as Homo sapiens) [aa572-578] | A, R, HC | A, R, HC | LFEQVMR |  |
| LYQEAR (listed as Homo sapiens) [aa442-447] | A | A |  |  |
| LYQEARKIVGAMVQIITYR (LYQEARKIVGAMVQITTYR; listed as Homo sapiens) [aa442-460] |  |  |  | induction of MPO-reactive antibodies (DR2 Tg mice; after 28 days): MPO-reactive antibodies after 28 days; BUN (DR2 Tg mice; [4]): increased BUN values; albuminuria (DR2 Tg mice; [4]): developed albuminuria; hematuria (DR2 Tg mice; [4]): hematuria; glomerular disease (DR2 Tg mice; day 28): mild glomerular proliferation |
| NGFPVALAR (listed as Homo sapiens) [aa220-228] | A | A |  |  |
| NNIFMSNTYPR (listed as Homo sapiens) [aa715-725] | A | A | NNIFMSNTYPR |  |
| NQINALTSFVDASMV (listed as Homo sapiens) [aa328-351] | A | A |  |  |
| QALAQISLPR (listed as Homo sapiens) [aa692-701] | A ,R | A, R |  |  |
| QNQIAVDEIR (listed as Homo sapiens) [aa560-571] | A, R | A, R |  |  |
| RDYLPLVLGPTAMR (listed as Homo sapiens) [aa460-473] | A, R, HC | A, R, HC |  |  |
| RSPTLGASNR (listed as Homo sapiens) [aa184-193] | A | A | RSPTLGASNR |  |
| VFFASWR (listed as Homo sapiens) [aa530-536] | A, R, HC | A, R, HC | VFFASWR |  |
| VGPLLACI (listed as Homo sapiens) [aa657-664] | A | A |  |  |
| VVLEGGIDPILR (listed as Homo sapiens) [aa537-548] | A | A | VVLEGGIDPILR |  |
| WDGER (listed as Homo sapiens) [aa437-441] | A, R | A, R |  |  |
| WLPAEYEDGFSLPYG (listed as Homo sapiens) [aa198-219] | A | A |  |  |
| YQPMEPNPR (listed as Homo sapiens) [aa516-524] | A, R, HC | A, R, HC |  | ELISA reactivity in clinical remission (MPO-ANCA [3]; UNC and NL cohorts, remission samples): reactivity was found in remission samples in both cohorts; ELISA reactivity with Ig from active disease samples (MPO-ANCA [3]; active disease samples): reactive with Ig from active disease samples |
